Type in all cases: in vivo
Experiment [1] has as its system Aphis gossipii Glover (cotton aphid, melon aphid). The experiment in a line: Insecticidal action test for Aphis gossipii Glover (seedling immersion). As to conditions: 72 h, 500 ppm active ingredient, cucumber seedlings with hatchlings immersed, 25° C., after 3 days, read-out: insect mortality. The method, then: A wettable powder prepared based on Formulation Example 2 was diluted with water so that the concentration of active ingredient became 500 ppm. In the resulting liquid were immersed cucumber seedlings on which the hatchlings of Aphis gossipii Glover were parasitic, after which the cucumber seedlings were dried in the air. The resulting cucumber seedlings were placed in a thermostat of 25° C. After 3 days, the number of living insects was calculated and the mortality of insect was calculated using the calculation formula of the following Mathematical Expression 1. Insect mortality (%)=[1−(number of living insects)/(number of tested insects)]×100 [Mathematical Expression 1]

The test system is the same in experiment [2]. The experiment in a line: Insecticidal action test for Aphis gossipii Glover (drench). The settings on record: soil, 72 h, 500 ppm active ingredient, 5 ml drenched to foot of cucumber seedlings with hatchlings, 25° C., after 3 days, read-out: insect mortality. The method, then:
A wettable powder prepared based on Formulation Example 2 was diluted with water so that the concentration of active ingredient became 500 ppm. 5 ml of the resulting diluted formulation was drenched to the […] foot of cucumber seedlings on which the hatchlings of Aphis gossipii Glover were parasitic. The resulting cucumber seedlings were placed in a thermostat of 25° C. After 3 days, the number of living insects was calculated and the mortality of insect was calculated using the calculation formula of Mathematical Expression 1.

Experiment [3] deals with Nilaparvata lugens Stál (brown rice planthopper). In words: Insecticidal action test for Nilaparvata lugens Stál (immersed sprouting rice). As to conditions: 144 h, 500 ppm active ingredient, sprouting unhulled rice immersed, 3-age larvae, 25° C., after 6 days, read-out: insect mortality. The method, then:
A wettable powder prepared based on Formulation Example 2 was diluted with water so that the concentration of active ingredient became 500 ppm. In the diluted formulation were immersed sprouting unhulled rice. The immersed rice was placed in a plastic cup of 60 ml. Into the plastic cup were released 10 3-age larvae of Nilaparvata lugens Stál (brown rice planthopper). The cup was covered with a cap and placed in a thermostat of 25° C. After 6 days, the number of living insects was counted and the mortality of insect was calculated using the calculation formula of Mathematical Expression 1.

Experiment [4] relates to Brown planthopper (Nilaparvata lugens). In words: Trial of systematic insecticidal activity against brown planthopper. The settings on record: 144 h, 1,800 ppm active ingredient, 250 μl poured to rice-plant foot of rice seedlings, 3-age larvae, 25° C., after 6 days, read-out: insect mortality. The method, then:
A wettable powder prepared based on Formulation Example 2 was diluted with water so that the concentration of active ingredient became 1,800 ppm. 250 μl of the diluted formulation was poured to the rice-plant foot of 2.5-leaf age rice seedlings planted in a paper pot of 1.5 cm (length)×1.5 cm (width)×3 cm (height). Then, the paper pot was placed in a plastic cup of 700 ml. Into the plastic cup were released 5 3-age larvae of Nilaparvata lugens Stál (brown rice planthopper). The cup was covered with a cap and placed in a thermostat of 25° C. After 6 days, the number of living insects was counted and the mortality of insect was calculated using the calculation formula of Mathematical Expression 1.

These results are taken from US8895035B2, “Alkoxyimino derivative and pest control agent” (Kumiai Chemical Industry Co., Ltd, priority 2010, dated 2014).

The structures appear in SMILES notation.

Consider `CC(C)ON=C(Cl)C(=NOC(C)C)n1cncn1` [I-4, 1-(2-chloro-1,2-diisopropoxyiminoethyl)-1H-1,2,4-triazole], for which the mortality at 500 ppm in experiment [1], in experiment [2] and in experiment [3] was no less than 90% in each case. For the same molecule, the mortality at 1800 ppm in experiment [4] is no less than 90%.
Regarding `CC(C)ON=C(C#N)C(=NOC(C)C)n1cncn1` [I-50, 1-(2-cyano-1,2-diisopropoxyiminoethyl)-1H-1,2,4-triazole], the mortality at 500 ppm in experiment [1] and in experiment [3] was no less than 90% throughout. Also, the mortality at 1800 ppm in experiment [4] is no less than 90%.
`CC(C)ON=C(C(N)=O)C(=NOC(C)C)n1cncn1` [I-73, 1-(2-carbamoyl-1,2-diisopropoxyiminoethyl)-1H-1,2,4-triazole]: in experiment [3], the mortality at 500 ppm was no less than 90%.
Turning to `CC(C)CON=C(N)C(=NOC(C)C)n1cncn1` [I-121, 1-(2-amino-2-isobutoxyimino-1-isopropoxyiminoethyl)-1H-1,2,4-triazole], the mortality at 500 ppm in experiment [1] and in experiment [3] was no less than 90% throughout.
Take `CC(C)ON=C(Br)C(=NOC(C)C)n1cncn1` [I-142, 1-(2-bromo-1,2-diisopropoxyiminoethyl)-1H-1,2,4-triazole]: the mortality at 500 ppm in experiment [1] and in experiment [3] was no less than 90% throughout. Besides, in experiment [4], the mortality at 1800 ppm is no less than 90%.
Consider `COC(=NOC(C)C)C(=NOC(C)C)n1cncn1` [I-165, 1-(1,2-diisopropoxyimino-2-methoxyethyl)-1H-1,2,4-triazole], for which the mortality at 500 ppm in experiment [1] and in experiment [3] was no less than 90% throughout. The mortality at 1800 ppm in experiment [4] was no less than 90%.
Turning to `CC(C)ON=C(C(=NOC(C)C)n1cncn1)n1cncn1` [I-212, 1,2-diisopropoxyimino-1,2-bis(1H-1,2,4-triazol-1-yl)ethane], the mortality at 500 ppm in experiment [1] and in experiment [3] was no less than 90% each time.
Consider `CC(C)ON=C(C(=NOC(C)C)n1cncn1)c1nnn[nH]1` [I-213, 1-[1,2-diisopropoxyimino-2-(1H-tetrazol-5-yl)ethyl]-1H-1,2,4-triazole], for which the mortality at 500 ppm in experiment [3] was no less than 90%.
Regarding `CSC(=NOC(C)C)C(=NOC(C)C)n1cncn1` [I-228, 1-(2-methylthio-1,2-diisopropoxyiminoethyl)-1H-1,2,4-triazole], the mortality at 500 ppm in experiment [1] and in experiment [3] was no less than 90% in each case. Moreover, the mortality at 1800 ppm in experiment [4] was no less than 90%.
With `CC(=NOC(C)C)C(=NOC(C)C)n1ccnc1` [I-273, 1-(1,2-diisopropoxyiminopropyl)imidazole], the mortality at 500 ppm in experiment [1] and in experiment [3] was no less than 90% in each case. In addition, the mortality at 1800 ppm in experiment [4] is no less than 90%.
For the molecule `CON=C(C(=NOC(C)C)C(=O)OC)n1cncn1` [II-221, 1-(2-isopropoxyimino-2-methoxycarbonyl-1-methoxyiminoethyl)-1H-1,2,4-triazole], the mortality at 500 ppm in experiment [1] and in experiment [3] was no less than 90% throughout.
Turning to `CCSC(=O)C(=NOC(C)C)C(=NOC)n1cncn1` [II-222, S-ethyl 2-isopropoxyimino-3-methoxyimino-3-(1H-1,2,4-triazol-1-yl)propanethioate], the mortality at 500 ppm in experiment [1] and in experiment [3] was no less than 90% throughout.
With `CON=C(C(=NOC(C)C)C(N)=S)n1cncn1` [II-224, 1-(2-isopropoxyimino-2-thiocarbamoyl-1-methoxyiminoethyl)-1H-1,2,4-triazole], the mortality at 500 ppm in experiment [1] and in experiment [3] was no less than 90% each time. Further, the mortality at 1800 ppm in experiment [4] was no less than 90%.
`CCCCON=C(C#N)C(=NOCC)n1cncn1` [III-51, 1-(2-n-butoxyimino-2-cyano-1-ethoxyiminoethyl)-1H-1,2,4-triazole]: the mortality at 500 ppm in experiment [1] and in experiment [3] was no less than 90% in each case.
For `CCCCON=C(C(N)=O)C(=NOCC)n1cncn1` [III-74, 1-(2-n-butoxyimino-2-carbamoyl-1-ethoxyiminoethyl)-1H-1,2,4-triazole], the mortality at 500 ppm in experiment [3] was no less than 90%.
As to `CCCON=C(C#N)C(=NOCCC)n1cncn1` [IV-90, 1-[2-cyano-1,2-bis(n-propoxyimino)ethyl]-1H-1,2,4-triazole], the mortality at 500 ppm in experiment [1] and in experiment [3] was no less than 90% each time.
With `CCCON=C(C(N)=O)C(=NOCCC)n1cncn1` [IV-101, 1-[2-carbamoyl-1,2-bis(n-propoxyimino)ethyl]-1H-1,2,4-triazole], in experiment [3], the mortality at 500 ppm is no less than 90%. In experiment [4], the mortality at 1800 ppm is no less than 90%.
Turning to `N#CC(=NOCC(F)(F)C(F)(F)F)C(=NOCC(F)(F)F)n1cncn1` [IV-185, 1-[2-cyano-2-(2,2,3,3,3-pentafluoro-n-propoxyimino)-1-(2,2,2-trifluoroethoxyimino)ethyl]-1H-1,2,4-triazole], the mortality at 500 ppm in experiment [3] was no less than 90%.
On to `CC(=NOC(C)C)C(=NOC(C)C)n1ccnc1S` [V-10, 1-(1,2-diisopropoxyiminopropyl)-2-mercaptoimidazole], for which the mortality at 500 ppm in experiment [1] and in experiment [3] was no less than 90% each time.
